Test [1] deals with HEK-Blue sensor cells. Put plainly: HEK-Blue sensor cell assay for functional IL12 (Quanti-Blue). It counts as cell-based. To be noted: HEK 293T transfected with 200 ng plasmid, 10 μM Shield-1 24 hours; media on HEK Blue sensor cells; FIG. 21A. The method, then: HEK-Blue sensor cells (InvivoGen, San Diego, Calif.) were utilized to evaluate whether DD regulated IL12 is capable of regulating signaling downstream of IL12. In these cells, the IL12 receptor, STAT4 and downstream transcriptional elements are tied to a reporter gene such that IL12 signaling can be monitored. To evaluate production of functional IL12, one million HEK 293T were transfected with 200 ng of OT-IL-12-003 plasmid using Lipofectamine 2000 (Thermo Fisher Scientific, Waltham, Mass.). 48 hours after transfection, cells were treated with growth media containing 10 μM Shield-1, incubated for another 24 hours, following which, media was collected. […] After overnight incubation, 20 μl media was removed from each well and incubated with 180 μl Quanti-Blue reagent (InvivoGen, San Diego, Calif.) for 30 minutes at 37° C. Absorption was measured at 620 nm using a spectrophotometer. […] Functional IL12 concentrations were determined by comparing the optical density of each sample with IL12 standard curve.
The dependence of functional IL12 production on the dose of Shield-1 used was also evaluated. […] Absorption was measured at 620 nm using a spectrophotometer. […] Functional IL12 concentrations were determined by comparing the optical density of each sample with IL12 standard curve.

In test [2] the test system is HCT-116 cells. Put plainly: Luciferase expression by western blotting. To be noted: HCT-116 stably transduced; 1 μM Shield-1 or 10 μM Trimethoprim or vehicle, 24 hours; FIG. 22A. It counts as cell-based. How it is done:
DD regulated luciferase can be used to track cells in vivo e.g. T cells. Firefly luciferase or Renilla luciferase may be utilized as the payload. HCT-116 cells were stably transduced with the constitutive (OT-RLuc-001) or DD regulated constructs (OT-RLuc-002, OT-RLuc-003, OT-RLuc-004, OT-RLuc-005 and OT-RLuc-006). Cells were treated with 1 μM Shield-1, or 10 μM Trimethoprim or vehicle control for 24 hours and luciferase expression and activity was measured. Luciferase expression was measured via western blotting using Anti-Renilla luciferase and anti-Firefly luciferase antibodies (Abcam, Cambridge, UK). Blots were also probed with anti-GAPDH antibody to ensure even protein loading in all samples.

The subject of test [3] is HEK293T cells. Put plainly: IL12-p40 ELISA, Shield-1 dose and cell number dependent IL12 induction. It counts as cell-based, human. To be noted: OT-IL12-004 transduced HEK293T cells, 24 hours. On the technique in general: An ELISA detects its analyte on a solid surface through an enzyme-linked reagent.
Description: Following overnight incubation, cells were treated with growth medium containing 0 to 10 μM Shield-1 for 24 hours. Media was then collected, diluted 400 fold and FKBP-IL12 levels were measured using IL12-p40 ELISA.
For test [4], the system named is HCT116 cells. Put plainly: IL2 ELISA, dependence of DD-IL2 levels on Shield-1 dose. To be noted: 96-well plate, varying concentrations of Shield-1, DD-IL2 construct, read-out: ECK of Shield-1 (IL2 levels by IL2 ELISA). It counts as cell-based. From the text: FKBP (L106P) and ecDHFR (R12Y, Y100I) are well-characterized destabilizing domains which can confer instability to fusion partners (e.g., a POI). The instability is reversed by a synthetic ligand named Shield-1 that binds to FKBP; TMP that binds to DHFR. An IL2 polypeptide was linked to either FKBP (L106P) or ecDHFR (R12Y, Y100I). IL2 constructs were cloned into pLVX-IRES-Puro lentiviral vectors. An IL2 signal sequence was inserted at the N terminus of the construct.
To evaluate dependence of IL2 levels on Shield-1 dose, HCT116 cells were plated onto a 96-well plate and treated with varying concentrations of Shield-1. Media was then collected from cells and IL2 levels were quantified using IL2 ELISA (FIG. 20). IL2 increased with increase in Shield-1 concentration and plateaued at higher Shield-1 dose levels. The ECK of Shield-1 was determined to be 50 nM

Test [5] has as its system HCT-116 cells. Kind of test: Luciferase activity, luminescence reading. To be noted: 1 μM Shield-1 or 10 μM Trimethoprim or vehicle, 24 hours; coelentrazine or luciferin substrate; FIG. 22B. It counts as cell-based. How it is done:
Ligand dependent activity of Renilla and firefly luciferase constructs was also measured in using coelentrazine and luciferin substrates respectively. Cells were treated with 1 μM Shield-1, or 10 μM Trimethoprim or vehicle control for 24 hours, lysed with assay lysis buffer and incubated with the luciferase substrate. Luciferase activity was measured as luminescence reading using a luminometer and the values were compared to control comprising of lysis buffer and substrate.

“OT-IL12-003: p40 signal sequence; FKBP (F36V, L106P); furin (SARNRQKRS); p40; linker ((G4S)3); p35; SEQ ID NO 213301”: the “Media dilution at which measurable levels of functional IL12 were reached” value in test [1] was found to be 640 fold.
In the case of “OT-FLuc-002: FKBP (F36V, 106P); linker (EF); Fluc; SEQ ID NO 213373”, the “Luciferase expression, ligand dependent stabilization (western blotting)” value (“Luciferase expression” for short) in test [2] is “modest stabilization”.
For the molecule `CC[C@H](C(=O)N1CCCC[C@H]1C(=O)O[C@H](CCc1ccc(OC)c(OC)c1)c1cccc(OCCN2CCOCC2)c1)c1cc(OC)c(OC)c(OC)c1` [Shield-1], in test [3], the “Shield-1 dose up to which IL12 induction increased, then plateaued” value is 1 µM. For the same molecule, the EC50 in test [4] turned out to be 0.05 µM.
On to “OT-RLuc-003: FKBP (F36V, 106P); linker (SG); Renilla Luc; SEQ ID NO 213374”, for which, in test [2], the “Luciferase expression” value was “strong Shield-1 dependent stabilization”.

B1: OT-RLuc-001: Renilla Luc (constitutive); SEQ ID NO 213372 (protein)
chain: MTSKVYDPEQRKRMITGPQWWARCKQMNVLDSFINYYDSEKHAENAVIFLHGNAASSYLWRHVVPHIEPVARCIIPDLIGMGKSGKSGNGSYRLLDHYKYLTAWFELLNLPKKIIFVGHDWGACLAFHYSYEHQDKIKAIVHAESVVDVIESWDEWPDIEEDIALIKSEEGEKMVLENNFFVETMLPSKIMRKLEPEEFAAYLEPFKEKGEVRRPTLSWPREIPLVKGGKPDVVQIVRNYNAYLRASDDLPKMFIESDPGFFSNAIVEGAKKFPNTEFVKVKGLHFSQEDAPDEMGKYIKSFVERVLKNEQ
For B1, the “Luciferase activity (luminescence reading)” value in test [5] is “high luciferase activity both in the presence and absence of ligand”. For the same molecule, the “Luciferase expression” value in test [2] is “expression of Renilla luciferase both in the presence and absence of ligand”.

B2: OT-RLuc-006: Renilla Luc; linker (SG); ecDHFR (R12Y, Y100I); SEQ ID NO 213377 (protein)
chain: MTSKVYDPEQRKRMITGPQWWARCKQMNVLDSFINYYDSEKHAENAVIFLHGNAASSYLWRHVVPHIEPVARCIIPDLIGMGKSGKSGNGSYRLLDHYKYLTAWFELLNLPKKIIFVGHDWGACLAFHYSYEHQDKIKAIVHAESVVDVIESWDEWPDIEEDIALIKSEEGEKMVLENNFFVETMLPSKIMRKLEPEEFAAYLEPFKEKGEVRRPTLSWPREIPLVKGGKPDVVQIVRNYNAYLRASDDLPKMFIESDPGFFSNAIVEGAKKFPNTEFVKVKGLHFSQEDAPDEMGKYIKSFVERVLKNEQSGISLIAALAVDYVIGMENAMPWNLPADLAWFKRNTLNKPVIMGRHTWESIGRPLPGRKNIILSSQPGTDDRVTWVKSVDEAIAACGDVPEIMVIGGGRVIEQFLPKAQKLYLTHIDAEVEGDTHFPDYEPDDWESVFSEFHDADAQNSHSYCFEILERR
For B2, the “Luciferase expression” value in test [2] is recorded as “modest stabilization”.

B3: OT-RLuc-005: Renilla Luc; linker (SG); FKBP (E31G, F36V, R71G, K105E); SEQ ID NO 213376 (protein)
chain: MTSKVYDPEQRKRMITGPQWWARCKQMNVLDSFINYYDSEKHAENAVIFLHGNAASSYLWRHVVPHIEPVARCIIPDLIGMGKSGKSGNGSYRLLDHYKYLTAWFELLNLPKKIIFVGHDWGACLAFHYSYEHQDKIKAIVHAESVVDVIESWDEWPDIEEDIALIKSEEGEKMVLENNFFVETMLPSKIMRKLEPEEFAAYLEPFKEKGEVRRPTLSWPREIPLVKGGKPDVVQIVRNYNAYLRASDDLPKMFIESDPGFFSNAIVEGAKKFPNTEFVKVKGLHFSQEDAPDEMGKYIKSFVERVLKNEQSGGVQVETISPGDGRTFPKRGQTCVVHYTGMLGDGKKVDSSRDRNKPFKFMLGKQEVIRGWEEGVAQMSVGQGAKLTISPDYAYGATGHPGIIPPHATLVFDVELLELE
B3: the “Luciferase expression” value in test [2] was “modest stabilization”.

B4: OT-RLuc-004: ecDHFR (R12Y, Y100I); linker (SG); Renilla Luc; SEQ ID NO 213375 (protein)
chain: MISLIAALAVDYVIGMENAMPWNLPADLAWFKRNTLNKPVIMGRHTWESIGRPLPGRKNIILSSQPGTDDRVTWVKSVDEAIAACGDVPEIMVIGGGRVIEQFLPKAQKLYLTHIDAEVEGDTHFPDYEPDDWESVFSEFHDADAQNSHSYCFEILERRSGTSKVYDPEQRKRMITGPQWWARCKQMNVLDSFINYYDSEKHAENAVIFLHGNAASSYLWRHVVPHIEPVARCIIPDLIGMGKSGKSGNGSYRLLDHYKYLTAWFELLNLPKKIIFVGHDWGACLAFHYSYEHQDKIKAIVHAESVVDVIESWDEWPDIEEDIALIKSEEGEKMVLENNFFVETMLPSKIMRKLEPEEFAAYLEPFKEKGEVRRPTLSWPREIPLVKGGKPDVVQIVRNYNAYLRASDDLPKMFIESDPGFFSNAIVEGAKKFPNTEFVKVKGLHFSQEDAPDEMGKYIKSFVERVLKNEQ
Turning to B4, the “Luciferase expression” value in test [2] was “modest stabilization”.

The values above are taken from patent US11446398B2, “Regulated biocircuit systems” (Obsidian Therapeutics, Inc., priority 2016, dated 2022).
